Reference: EP4745137A1 (Gluetacs Therapeutics (Shanghai) Co., Ltd., priority 2023, dated 2025)

How the values were obtained:
[1] = target: T1, WEE1 (Homo sapiens, UniProt P30291+Q96SW2); test: Western-blot assay of substrate protein degradation in hPBMCs, WEE1; format: cell-based; details: 24 hours of compound treatment
T1 construct: endogenous in cells; host or cells: hPBMCs (Milecell Biotechnologies)

[2] = target: T2, IKZF1 (Homo sapiens, UniProt Q13422+Q96SW2); test: Western-blot assay of substrate protein degradation in hPBMCs, IKZF1; format: cell-based; details: 24 hours of compound treatment
T2 construct: endogenous in cells; host or cells: hPBMCs (Milecell Biotechnologies)

[3] = target: T3, IKZF2 (Homo sapiens, UniProt Q96SW2+Q9UKS7); test: Western-blot assay of substrate protein degradation in hPBMCs, IKZF2; format: cell-based; details: 24 hours of compound treatment
T3 construct: endogenous in cells; host or cells: hPBMCs (Milecell Biotechnologies)

[4] = target: T4, IKZF3 (Homo sapiens, UniProt Q96SW2+Q9UKT9); test: Western-blot assay of substrate protein degradation in hPBMCs, IKZF3; format: cell-based; details: 24 hours of compound treatment
T4 construct: endogenous in cells; host or cells: hPBMCs (Milecell Biotechnologies)

[5] = target: T5, CK1α (Homo sapiens, UniProt P48729+Q96SW2); test: Western-blot assay of substrate protein degradation in hPBMCs, CK1α; format: cell-based; details: 24 hours of compound treatment
T5 construct: endogenous in cells; host or cells: hPBMCs (Milecell Biotechnologies)

[6] = target: T6, GSPT1 (Homo sapiens, UniProt P15170+Q96SW2); test: Western-blot assay of substrate protein degradation in hPBMCs, GSPT1; format: cell-based; details: 24 hours of compound treatment
T6 construct: endogenous in cells; host or cells: hPBMCs (Milecell Biotechnologies)

[7] = target: T7, human Cereblon WT GST-tagged protein (Homo sapiens, UniProt Q96SW2); test: CRBN-binding affinity by HTRF (CEREBLON BINDING kit); details: HTRF inhibitory activity, CEREBLON BINDING kit; read-out: HTRF IC50
T7 construct: purchased CISBIO 64BDCRBNPEH

[8] = system: Human acute T lymphocytic leukemia cells (Molt-4); test: Tumor cell proliferation inhibition (CellTiter-Meiluncell Luminescent Cell Viability Assay), Molt-4; details: MOLT-4, 96 h, read-out: inhibitory activity (IC50, nM) against tumor cells proliferation, Molt 4
[9] = system: Human breast cancer cells (MDA-MB-231); test: Tumor cell proliferation inhibition (CellTiter-Meiluncell Luminescent Cell Viability Assay), MDA-MB-231; details: for IC50: MDA-MB-231, 96 h, read-out: inhibitory activity (IC50, nM) against tumor cells proliferation, MDA-MB-231
[10] = system: NCI-H1975; test: Tumor cell proliferation inhibition (CellTiter-Meiluncell Luminescent Cell Viability Assay), NCI-H1975; details: Homo sapiens, NCI-H1975, 96 h, read-out: inhibitory activity (IC50, nM) against tumor cells proliferation, H1975
[11] = system: Jurkat; test: Tumor cell proliferation inhibition (CellTiter-Meiluncell Luminescent Cell Viability Assay), Jurkat; details: Homo sapiens, read-out: inhibitory activity (IC50, nM) against tumor cells proliferation, Jurkat
Procedure: The tumor cells used herein were cultured in a cell culture medium listed in table 2 at 37°C in an incubator with 5% CO2. Prior to experimentation, all cell lines used were correctly identified by STR profiling, and tested negative for mycoplasma contamination using a mycoplasma detection kit through routine screenings.
On the following day, the test compounds of the present disclosure were subjected to serial dilution. […] Subsequently, 0.5 µL of the test compound dilution was transferred into the 96-well plate containing the cells, with each well containing 100 µL of cell culture medium. […] Into the 96-well plate, the diluted test compounds and corresponding detection reagents were added, resulting in final test compound concentrations of 500 nM and 10 nM, respectively. The experimental procedure is described below using the diluted 2 µM test compound as an example.
After the cells were treated with the compounds of the present disclosure for a specified period (the treatment durations were shown in Table 3), the cell viability assay reagent was added to the culture medium according to the kit's instructions to determine cell viability. […] All controls were treated using the same procedure as the compounds of the present disclosure. The growth inhibition curves for the compounds of the present disclosure were plotted using Prism GraphPad software, and the IC50 values were calculated therefrom.

[12] = compounds tested at 50 nM and 500 nM (concentration of the table not stated)
[13] = 50 nM and 500 nM tested (concentration behind the class not stated)

T4 sequence (Q9UKT9 whole entry): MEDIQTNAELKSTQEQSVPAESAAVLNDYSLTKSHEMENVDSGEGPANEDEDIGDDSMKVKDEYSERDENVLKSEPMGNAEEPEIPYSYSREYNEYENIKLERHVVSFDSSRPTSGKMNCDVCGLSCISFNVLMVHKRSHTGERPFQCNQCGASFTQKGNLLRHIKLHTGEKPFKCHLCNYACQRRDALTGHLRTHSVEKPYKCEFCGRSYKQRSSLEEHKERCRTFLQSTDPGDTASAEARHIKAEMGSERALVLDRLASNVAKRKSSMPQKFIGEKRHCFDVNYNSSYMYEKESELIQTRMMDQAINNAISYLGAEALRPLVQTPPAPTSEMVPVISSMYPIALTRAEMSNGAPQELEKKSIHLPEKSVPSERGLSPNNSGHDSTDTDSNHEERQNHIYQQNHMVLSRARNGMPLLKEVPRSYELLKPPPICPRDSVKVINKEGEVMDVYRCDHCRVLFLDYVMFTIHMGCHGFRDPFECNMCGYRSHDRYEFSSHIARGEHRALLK
T4 sequence (Q96SW2 whole entry): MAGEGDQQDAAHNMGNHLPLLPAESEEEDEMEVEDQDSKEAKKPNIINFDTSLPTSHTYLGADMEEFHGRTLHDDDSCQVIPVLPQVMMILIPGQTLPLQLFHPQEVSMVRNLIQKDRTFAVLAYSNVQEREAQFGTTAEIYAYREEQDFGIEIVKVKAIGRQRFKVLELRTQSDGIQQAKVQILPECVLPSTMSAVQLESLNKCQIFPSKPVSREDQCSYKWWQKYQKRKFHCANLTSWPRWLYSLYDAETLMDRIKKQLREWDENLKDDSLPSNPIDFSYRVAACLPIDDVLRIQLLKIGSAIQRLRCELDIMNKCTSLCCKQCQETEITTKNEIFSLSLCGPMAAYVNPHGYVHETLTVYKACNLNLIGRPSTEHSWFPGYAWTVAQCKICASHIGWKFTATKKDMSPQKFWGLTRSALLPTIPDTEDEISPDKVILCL
T4 sequence (Q16531 whole entry partner): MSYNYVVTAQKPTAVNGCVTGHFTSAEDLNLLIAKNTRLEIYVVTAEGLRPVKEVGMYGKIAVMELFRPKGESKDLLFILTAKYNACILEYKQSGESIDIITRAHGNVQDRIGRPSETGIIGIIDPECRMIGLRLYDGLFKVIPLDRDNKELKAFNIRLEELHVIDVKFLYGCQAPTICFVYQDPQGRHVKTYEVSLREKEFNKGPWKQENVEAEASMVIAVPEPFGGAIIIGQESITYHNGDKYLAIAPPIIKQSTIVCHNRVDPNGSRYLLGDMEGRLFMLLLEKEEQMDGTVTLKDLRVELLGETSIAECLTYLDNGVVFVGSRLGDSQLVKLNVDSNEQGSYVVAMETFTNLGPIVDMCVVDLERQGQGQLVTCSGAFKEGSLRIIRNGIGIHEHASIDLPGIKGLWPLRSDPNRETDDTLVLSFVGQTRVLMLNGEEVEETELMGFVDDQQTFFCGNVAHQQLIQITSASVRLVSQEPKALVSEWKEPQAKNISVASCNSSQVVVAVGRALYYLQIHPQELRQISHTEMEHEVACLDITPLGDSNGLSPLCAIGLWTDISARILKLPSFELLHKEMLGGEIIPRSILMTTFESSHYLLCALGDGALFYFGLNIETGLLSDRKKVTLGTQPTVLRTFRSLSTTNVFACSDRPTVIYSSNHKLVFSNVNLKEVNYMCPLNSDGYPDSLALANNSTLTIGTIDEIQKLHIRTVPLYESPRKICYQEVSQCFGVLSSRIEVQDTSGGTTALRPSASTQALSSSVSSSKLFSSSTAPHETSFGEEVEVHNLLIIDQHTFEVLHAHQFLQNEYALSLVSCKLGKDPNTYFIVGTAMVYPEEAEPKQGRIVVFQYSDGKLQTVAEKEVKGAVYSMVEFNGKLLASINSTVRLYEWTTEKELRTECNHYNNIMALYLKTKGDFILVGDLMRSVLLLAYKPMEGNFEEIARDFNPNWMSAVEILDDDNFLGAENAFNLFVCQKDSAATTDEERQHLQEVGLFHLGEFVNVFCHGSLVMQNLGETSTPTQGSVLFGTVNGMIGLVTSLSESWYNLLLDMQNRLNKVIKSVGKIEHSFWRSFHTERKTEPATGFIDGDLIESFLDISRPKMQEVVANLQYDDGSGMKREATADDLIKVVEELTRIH
T5 sequence (P48729 whole entry): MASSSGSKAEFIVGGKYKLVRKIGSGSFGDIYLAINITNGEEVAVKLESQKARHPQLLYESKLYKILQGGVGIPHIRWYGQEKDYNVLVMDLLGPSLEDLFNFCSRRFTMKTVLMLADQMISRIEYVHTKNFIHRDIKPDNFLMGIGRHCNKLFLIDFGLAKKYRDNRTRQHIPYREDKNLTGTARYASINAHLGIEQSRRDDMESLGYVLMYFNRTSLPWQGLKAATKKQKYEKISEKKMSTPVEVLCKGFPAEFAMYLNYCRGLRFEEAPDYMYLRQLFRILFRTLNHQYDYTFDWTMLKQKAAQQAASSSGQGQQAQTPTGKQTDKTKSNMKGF
T5 sequence (Q96SW2 whole entry): as the sequence (Q96SW2 whole entry) above
T5 sequence (Q16531 whole entry partner): as the sequence (Q16531 whole entry partner) above
T2 sequence (Q13422 whole entry): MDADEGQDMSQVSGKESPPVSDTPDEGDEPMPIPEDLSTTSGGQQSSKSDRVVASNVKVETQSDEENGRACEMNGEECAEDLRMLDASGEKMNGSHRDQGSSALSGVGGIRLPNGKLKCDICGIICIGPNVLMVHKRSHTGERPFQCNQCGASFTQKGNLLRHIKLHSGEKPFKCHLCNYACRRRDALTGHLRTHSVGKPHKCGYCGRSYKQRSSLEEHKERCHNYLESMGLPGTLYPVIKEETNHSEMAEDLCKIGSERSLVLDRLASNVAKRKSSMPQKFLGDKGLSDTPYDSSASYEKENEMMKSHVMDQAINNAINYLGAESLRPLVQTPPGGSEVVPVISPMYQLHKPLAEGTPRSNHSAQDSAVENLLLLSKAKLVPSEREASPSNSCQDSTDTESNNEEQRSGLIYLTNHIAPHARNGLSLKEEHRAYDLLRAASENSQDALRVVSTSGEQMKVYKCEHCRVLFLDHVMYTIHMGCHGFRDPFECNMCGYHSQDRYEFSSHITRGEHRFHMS
T2 sequence (Q96SW2 whole entry): as the sequence (Q96SW2 whole entry) above
T2 sequence (Q16531 whole entry partner): as the sequence (Q16531 whole entry partner) above
T7 sequence (Q96SW2 whole entry): as the sequence (Q96SW2 whole entry) above
T3 sequence (Q9UKS7 whole entry): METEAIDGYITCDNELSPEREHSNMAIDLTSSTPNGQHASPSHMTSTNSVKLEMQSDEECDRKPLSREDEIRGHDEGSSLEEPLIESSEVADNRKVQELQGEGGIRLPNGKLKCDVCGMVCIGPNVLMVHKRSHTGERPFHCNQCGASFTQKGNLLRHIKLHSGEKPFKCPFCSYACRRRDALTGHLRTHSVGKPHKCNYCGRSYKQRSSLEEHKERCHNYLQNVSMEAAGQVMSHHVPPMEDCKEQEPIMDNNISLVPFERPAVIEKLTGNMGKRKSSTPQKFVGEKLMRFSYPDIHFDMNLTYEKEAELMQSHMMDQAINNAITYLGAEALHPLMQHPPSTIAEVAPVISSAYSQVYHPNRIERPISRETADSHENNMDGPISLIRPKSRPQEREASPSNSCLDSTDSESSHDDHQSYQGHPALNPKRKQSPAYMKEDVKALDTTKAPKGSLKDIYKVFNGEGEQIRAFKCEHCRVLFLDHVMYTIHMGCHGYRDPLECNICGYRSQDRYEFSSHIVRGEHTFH
T3 sequence (Q96SW2 whole entry): as the sequence (Q96SW2 whole entry) above
T3 sequence (Q16531 whole entry partner): as the sequence (Q16531 whole entry partner) above
T1 sequence (P30291 whole entry): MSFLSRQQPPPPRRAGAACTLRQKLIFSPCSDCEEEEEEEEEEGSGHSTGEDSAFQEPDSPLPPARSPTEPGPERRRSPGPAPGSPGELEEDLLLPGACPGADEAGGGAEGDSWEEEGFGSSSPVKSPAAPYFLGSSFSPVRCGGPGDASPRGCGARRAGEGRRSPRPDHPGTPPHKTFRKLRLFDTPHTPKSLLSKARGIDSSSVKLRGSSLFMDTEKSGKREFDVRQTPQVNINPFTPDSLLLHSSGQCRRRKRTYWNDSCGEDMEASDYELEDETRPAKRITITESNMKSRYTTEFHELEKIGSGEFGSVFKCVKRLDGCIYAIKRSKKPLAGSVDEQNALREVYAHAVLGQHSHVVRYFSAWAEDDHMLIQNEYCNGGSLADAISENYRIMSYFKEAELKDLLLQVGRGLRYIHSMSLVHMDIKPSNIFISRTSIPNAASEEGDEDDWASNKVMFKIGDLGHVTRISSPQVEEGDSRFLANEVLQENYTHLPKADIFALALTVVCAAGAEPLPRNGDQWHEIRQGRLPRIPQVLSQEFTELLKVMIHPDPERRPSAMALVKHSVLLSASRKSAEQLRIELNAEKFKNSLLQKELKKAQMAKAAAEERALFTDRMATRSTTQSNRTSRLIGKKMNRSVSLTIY
T1 sequence (Q96SW2 whole entry): as the sequence (Q96SW2 whole entry) above
T1 sequence (Q16531 whole entry partner): as the sequence (Q16531 whole entry partner) above

SMILES | Weel substrate protein remaining % [1, 12] | IKZF 1 substrate protein remaining % [2, 12] | IKZF2 substrate protein remaining % [3, 12] | IKZF3 substrate protein remaining % [4, 12] | CK1a substrate protein remaining % [5, 12] | GSPT1 substrate protein remaining % [6, 12] | IC50 [7] [nM] | IC50 [8] [nM] | IC50 [9] [nM] | Weel substrate protein remaining % [1, 13] | IKZF 1 substrate protein remaining % [2, 13] | IKZF2 substrate protein remaining % [3, 13] | IKZF3 substrate protein remaining % [4, 13] | CK1a substrate protein remaining % [5, 13] | GSPT1 substrate protein remaining % [6, 13] | inhibition at 0.01 µM ([9]; MDA-MB-231, read-out: Inhibition rate (%) at 10 nM) [%] | inhibition at 0.5 µM ([9]; MDA-MB-231, read-out: Inhibition rate (%) at 500 nM) [%] | IC50 [10] [nM] | IC50 [11] [nM]
Cc1ccsc1C1=CCN(Cc2ccc3c(c2)C(=O)N(C2CCC(=O)NC2=O)C3=O)CC1 (stereo not shown) [GT-04732, 2-(2,6-dioxopiperidin-3-yl)-5-((4-(3-methylthiophen-2-yl)-3,6-dihydropyridin-1(2H)-yl)methyl)isoindoline-1,3-dione] | A (0% ≤ substrate protein remaining % ≤ 80%) | B (80%< substrate protein remaining %≤ 100%) | B (80%< substrate protein remaining %≤ 100%) | B (80%< substrate protein remaining %≤ 100%) | A (0% ≤ substrate protein remaining % ≤ 80%) | A (0% ≤ substrate protein remaining % ≤ 80%) | 500 to 1000 | 50 to 100 | 500 to 1000 |  |  |  |  |  |  |  |  |  | 
O=C1CCC(N2C(=O)c3ccc(CN4CCN(c5nc(N6CCC6)nc6c5SCC6)CC4)cc3C2=O)C(=O)N1 (stereo not shown) [GT-08005, 5-((4-(2-(azetidin-1-yl)-6,7-dihydrothieno[3,2-d]pyrimidin-4-yl)piperazin-1-yl)methyl)-2-(2,6-dioxopiperidin-3-yl)isoindoline-1,3-dione] |  |  |  |  |  |  |  |  |  | B (80%< substrate protein remaining %≤ 100%) | A (0% ≤ substrate protein remaining % ≤ 80%) | A (0% ≤ substrate protein remaining % ≤ 80%) | A (0% ≤ substrate protein remaining % ≤ 80%) | B (80%< substrate protein remaining %≤ 100%) | B (80%< substrate protein remaining %≤ 100%) | 20 to 30 | 30 to 40 |  | 
O=C1CCC(N2Cc3cc(CN4CC=C(c5c[nH]c6cc(F)ccc56)CC4)ccc3C2=O)C(=O)N1 (stereo not shown) [GT-04722, 3-(5-((4-(6-fluoro-1H-indol-3-yl)-3,6-dihydropyridin-1(2H)-yl)methyl)-1-oxoisoindolin-2-yl)piperidine-2,6-dione] | B (80%< substrate protein remaining %≤ 100%) | B (80%< substrate protein remaining %≤ 100%) | B (80%< substrate protein remaining %≤ 100%) | A (0% ≤ substrate protein remaining % ≤ 80%) | A (0% ≤ substrate protein remaining % ≤ 80%) | A (0% ≤ substrate protein remaining % ≤ 80%) | < 500 | 50 to 100 | 100 to 500 |  |  |  |  |  |  |  |  | 100 to 500 | 
O=C1CCC(N2Cc3cc(CN4CCC(c5c[nH]c6ncccc56)CC4)ccc3C2=O)C(=O)N1 (stereo not shown) [GT-04603, 3-(5-((4-(1H-pyrrolo[2,3-b]pyridin-3-yl)piperidin-1-yl)methyl)-1-oxoisoindolin-2-yl)piperidine-2,6-dione] | A (0% ≤ substrate protein remaining % ≤ 80%) | A (0% ≤ substrate protein remaining % ≤ 80%) | A (0% ≤ substrate protein remaining % ≤ 80%) | A (0% ≤ substrate protein remaining % ≤ 80%) | A (0% ≤ substrate protein remaining % ≤ 80%) | A (0% ≤ substrate protein remaining % ≤ 80%) | 500 to 1000 | 10 to 50 | 100 to 500 |  |  |  |  |  |  |  |  | 100 to 500 | 
O=C1CCC(N2Cc3cc(CN4CCC(N5CCCc6cc(F)ccc65)CC4)ccc3C2=O)C(=O)N1 (stereo not shown) [GT-04691, 3-(5-((4-(6-fluoro-3,4-dihydroquinolin-1(2H)-yl)piperidin-1-yl)methyl)-1-oxoisoindolin-2-yl)piperidine-2,6-dione] | A (0% ≤ substrate protein remaining % ≤ 80%) | A (0% ≤ substrate protein remaining % ≤ 80%) | A (0% ≤ substrate protein remaining % ≤ 80%) | A (0% ≤ substrate protein remaining % ≤ 80%) | A (0% ≤ substrate protein remaining % ≤ 80%) | A (0% ≤ substrate protein remaining % ≤ 80%) | 500 to 1000 | 10 to 50 | 500 to 1000 |  |  |  |  |  |  |  |  | 500 to 1000 | 
O=C1CCC(N2Cc3cc(CN4C5CC4CN(c4cccc(Cl)c4Cl)C5)ccc3C2=O)C(=O)N1 (stereo not shown) [GT-04712, 3-(5-((3-(2,3-dichlorophenyl)-3,6-diazabicyclo[3.1.1]heptan-6-yl)methyl)-1-oxoisoindolin-2-yl)piperidine-2,6-dione] | B (80%< substrate protein remaining %≤ 100%) | B (80%< substrate protein remaining %≤ 100%) | B (80%< substrate protein remaining %≤ 100%) | A (0% ≤ substrate protein remaining % ≤ 80%) | A (0% ≤ substrate protein remaining % ≤ 80%) | A (0% ≤ substrate protein remaining % ≤ 80%) | 500 to 1000 | 10 to 50 | 50 to 100 |  |  |  |  |  |  |  |  | 100 to 500 | 
O=C1CCC(N2C(=O)c3ccc(CN4CCC(c5ncc6ccsc6n5)CC4)cc3C2=O)C(=O)N1 (stereo not shown) [GT-06652, 2-(2,6-dioxopiperidin-3-yl)-5-((4-(thieno[2,3-d]pyrimidin-2-yl)piperidin-1-yl)methyl)isoindoline-1,3-dione] |  |  |  |  |  |  |  |  |  | A (0% ≤ substrate protein remaining % ≤ 80%) | B (80%< substrate protein remaining %≤ 100%) | A (0% ≤ substrate protein remaining % ≤ 80%) | B (80%< substrate protein remaining %≤ 100%) | B (80%< substrate protein remaining %≤ 100%) | A (0% ≤ substrate protein remaining % ≤ 80%) |  |  |  | 100 to 500
